For the test, the target named is T1, Ubiquitin carboxyl-terminal hydrolase 30 (Homo sapiens, UniProt Q70CQ3).
T1 sequence (Q70CQ3 whole entry): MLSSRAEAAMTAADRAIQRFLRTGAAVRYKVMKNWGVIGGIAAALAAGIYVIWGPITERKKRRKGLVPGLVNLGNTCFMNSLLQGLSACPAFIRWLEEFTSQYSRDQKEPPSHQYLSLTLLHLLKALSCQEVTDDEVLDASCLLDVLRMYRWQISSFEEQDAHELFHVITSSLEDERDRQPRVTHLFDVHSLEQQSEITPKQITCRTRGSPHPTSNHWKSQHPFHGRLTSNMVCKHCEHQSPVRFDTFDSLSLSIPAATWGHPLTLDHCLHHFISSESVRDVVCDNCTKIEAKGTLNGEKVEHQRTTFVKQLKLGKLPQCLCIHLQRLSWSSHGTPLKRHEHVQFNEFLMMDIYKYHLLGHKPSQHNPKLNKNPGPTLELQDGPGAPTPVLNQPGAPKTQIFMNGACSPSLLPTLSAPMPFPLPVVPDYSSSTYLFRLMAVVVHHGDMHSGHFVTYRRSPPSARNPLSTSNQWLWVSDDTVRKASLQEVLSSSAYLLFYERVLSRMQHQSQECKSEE
Put plainly: Biochemical Fluorescence Intensity Assay. As to the method:
A typical 8-point dilution series would be 100, 30, 10, 3, 1, 0.3, 0.1, 0.03 μM final. […] USP30 was diluted in reaction buffer (40 mM Tris, pH 7.5, 0.005% Tween 20, 0.5 mg/ml BSA, 5 mM beta-mercaptoethanol) to the equivalent of 0.001 μl/well and 10 μl of diluted USP30 was added to the compound. Enzyme and compound were incubated for 30 min at room temp. […] Reactions were read immediately after addition of substrate and following a 2 h incubation at room temperature.

The source of these data is BindingDB's records for patent US10343992 (Missions Therapeutics, 2019).

In the case of `Cn1ccc(-c2ccc(NC(=O)N3CC[C@@H]4CN(C#N)C[C@@H]43)c(F)c2)n1` [US10343992, Example 245], the IC50 (commonly the midpoint of a concentration-inhibition curve) was “in the range around 550 nM”.

`CN(C(=O)CC1=NC2C=C(c3cnn(C)c3)N=CC2N1)C1CCN(C#N)C1` (configuration not stated) [US10343992, Example 263]: the IC50 entry is “in the range around 550 nM”.
